# Laboratory results published in ChEMBL document CHEMBL1125236 (J Med Chem, 1991).
# Values joined by “and” are separate entries in the source; they are usually repeats but may differ in a detail not shown here. Equal entries are not always repeated.
# What was measured:
# L1210 [1] = experiment: Compound was evaluated for the growth inhibition of L1210 cells.; assay type: functional, cell-based; conditions: Mus musculus
# [2] = Compound was evaluated for growth inhibition of WI-L2 cells.; assay type: functional, cell-based; conditions: Homo sapiens, WIL2
# Dihydrofolate reductase = target: T1, Dihydrofolate reductase (Homo sapiens, UniProt P00374)
# T1 sequence (P00374 whole entry): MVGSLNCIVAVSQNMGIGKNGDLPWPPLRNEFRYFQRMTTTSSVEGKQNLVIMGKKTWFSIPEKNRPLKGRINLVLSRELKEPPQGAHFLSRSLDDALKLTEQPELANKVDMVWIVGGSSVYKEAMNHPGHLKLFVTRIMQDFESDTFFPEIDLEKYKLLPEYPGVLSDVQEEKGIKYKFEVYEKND
# Description: Inhibition of dihydrofolate reductase (DHFR) from human cells (WI-L2/M4).
# L1210 [3] = experiment: In vivo activity against L1210 leukemia cells in mice at a dose of 16 mg/kg and expressed as Survival range in days; assay type: functional, Mus musculus
# L1210 [4] = experiment: In vivo activity against L1210 leukemia cells in mice at a dose of 16 mg/kg and expressed as Survival median in days; assay type: functional, Mus musculus
# L1210 [5] = experiment: In vivo activity against L1210 leukemia cells in mice at a dose of 32 mg/kg and expressed as Survival median in days; assay type: functional, Mus musculus
# L1210 [6] = experiment: Antitumor activity (T/C) evaluated against L1210 leukemia from the median survival time of treated mice (T) over that of control mice (C) at a dose of 8 mg/kg; assay type: functional, Mus musculus
# L1210 [7] = experiment: In vivo activity against L1210 leukemia cells in mice at a dose of 8 mg/kg and expressed as Survival median in days; assay type: functional, Mus musculus
# L1210 [8] = experiment: In vivo activity against L1210 leukemia cells in mice at a dose of 32 mg/kg and expressed as Survival range in days; assay type: functional, Mus musculus
# L1210 [9] = experiment: In vivo activity against L1210 leukemia cells in mice at a dose of 8 mg/kg and expressed as Survival range in days; assay type: functional, Mus musculus
# L1210 [10] = experiment: Antitumor activity (T/C) evaluated against L1210 leukemia from the median survival time of treated mice (T) over that of control mice (C) at a dose of 16 mg/kg; assay type: functional, Mus musculus
# L1210 [11] = experiment: Antitumor activity (T/C) evaluated against L1210 leukemia from the median survival time of treated mice (T) over that of control mice (C) at a dose of 32 mg/kg; assay type: functional, Mus musculus
# L1210 [12] = experiment: In vivo activity against L1210 leukemia cells in mice at a dose of 16 mg/kg and expressed as percent weight change after 7 days; assay type: functional, Mus musculus
# L1210 [13] = experiment: In vivo activity against L1210 leukemia cells in mice at a dose of 32 mg/kg and expressed as percent weight change after 7 days; assay type: functional, Mus musculus
# L1210 [14] = experiment: In vivo activity against L1210 leukemia cells in mice at a dose of 8 mg/kg and expressed as percent weight change after 7 days; assay type: functional, Mus musculus
# L1210 [15] = experiment: In vivo activity against L1210 leukemia cells in mice at a dose of 12 mg/kg and expressed as Survival median in days as experiment 2; assay type: functional, Mus musculus
# L1210 [16] = experiment: In vivo activity against L1210 leukemia cells in mice at a dose of 4 mg/kg and expressed as Survival median in days as experiment 1.; assay type: functional, Mus musculus
# L1210 [17] = experiment: In vivo activity against L1210 leukemia cells in mice at a dose of 4 mg/kg and expressed as Survival median in days as experiment 3; assay type: functional, Mus musculus
# L1210 [18] = experiment: In vivo activity against L1210 leukemia cells in mice at a dose of 12 mg/kg and expressed as Survival median in days as experiment 3; assay type: functional, Mus musculus
# L1210 [19] = experiment: In vivo activity against L1210 leukemia cells in mice at a dose of 16 mg/kg and expressed as Survival median in days as experiment 1.; assay type: functional, Mus musculus
# L1210 [20] = experiment: In vivo activity against L1210 leukemia cells in mice at a dose of 16 mg/kg and expressed as Survival median in days as experiment 2; assay type: functional, Mus musculus
# L1210 [21] = experiment: In vivo activity against L1210 leukemia cells in mice at a dose of 16 mg/kg and expressed as Survival median in days as experiment 3; assay type: functional, Mus musculus
# L1210 [22] = experiment: In vivo activity against L1210 leukemia cells in mice at a dose of 20 mg/kg and expressed as Survival median in days as experiment 2; assay type: functional, Mus musculus
# L1210 [23] = experiment: In vivo activity against L1210 leukemia cells in mice at a dose of 2 mg/kg and expressed as Survival median in days as experiment 1.; assay type: functional, Mus musculus
# L1210 [24] = experiment: In vivo activity against L1210 leukemia cells in mice at a dose of 32 mg/kg and expressed as Survival median in days as experiment 1.; assay type: functional, Mus musculus
# L1210 [25] = experiment: Antitumor activity (T/C) evaluated against L1210 leukemia from the median survival time of treated mice (T) over that of control mice (C) at a dose of 4 mg/kg as experiment 1; assay type: functional, Mus musculus
# L1210 [26] = experiment: Antitumor activity (T/C) evaluated against L1210 leukemia from the median survival time of treated mice (T) over that of control mice (C) at a dose of 4 mg/kg as experiment 3; assay type: functional, Mus musculus
# L1210 [27] = experiment: Antitumor activity (T/C) evaluated against L1210 leukemia from the median survival time of treated mice (T) over that of control mice (C) at a dose of 8 mg/kg as experiment 3; assay type: functional, Mus musculus
# L1210 [28] = experiment: In vivo activity against L1210 leukemia cells in mice at a dose of 12 mg/kg and expressed as percent weight change after 7 days as experiment 2; assay type: functional, Mus musculus
# L1210 [29] = experiment: In vivo activity against L1210 leukemia cells in mice at a dose of 8 mg/kg and expressed as Survival median in days as experiment 1.; assay type: functional, Mus musculus
# L1210 [30] = experiment: In vivo activity against L1210 leukemia cells in mice at a dose of 8 mg/kg and expressed as Survival median in days as experiment 3; assay type: functional, Mus musculus
# L1210 [31] = experiment: In vivo activity against L1210 leukemia cells in mice at a dose of 4 mg/kg and expressed as Survival range in days as experiment 1.; assay type: functional, Mus musculus
# L1210 [32] = experiment: Antitumor activity (T/C) evaluated against L1210 leukemia from the median survival time of treated mice (T) over that of control mice (C) at a dose of 12 mg/kg as experiment 2; assay type: functional, Mus musculus
# L1210 [33] = experiment: Antitumor activity (T/C) evaluated against L1210 leukemia from the median survival time of treated mice (T) over that of control mice (C) at a dose of 12 mg/kg as experiment 3; assay type: functional, Mus musculus
# L1210 [34] = experiment: Antitumor activity (T/C) evaluated against L1210 leukemia from the median survival time of treated mice (T) over that of control mice (C) at a dose of 16 mg/kg as experiment 1; assay type: functional, Mus musculus
# L1210 [35] = experiment: Antitumor activity (T/C) evaluated against L1210 leukemia from the median survival time of treated mice (T) over that of control mice (C) at a dose of 16 mg/kg as experiment 2; assay type: functional, Mus musculus
# L1210 [36] = experiment: Antitumor activity (T/C) evaluated against L1210 leukemia from the median survival time of treated mice (T) over that of control mice (C) at a dose of 16 mg/kg as experiment 3; assay type: functional, Mus musculus
# L1210 [37] = experiment: Antitumor activity (T/C) evaluated against L1210 leukemia from the median survival time of treated mice (T) over that of control mice (C) at a dose of 2 mg/kg as experiment 1; assay type: functional, Mus musculus
# L1210 [38] = experiment: Antitumor activity (T/C) evaluated against L1210 leukemia from the median survival time of treated mice (T) over that of control mice (C) at a dose of 20 mg/kg as experiment 2; assay type: functional, Mus musculus
# L1210 [39] = experiment: Antitumor activity (T/C) evaluated against L1210 leukemia from the median survival time of treated mice (T) over that of control mice (C) at a dose of 24 mg/kg as experiment 2; assay type: functional, Mus musculus
# L1210 [40] = experiment: Antitumor activity (T/C) evaluated against L1210 leukemia from the median survival time of treated mice (T) over that of control mice (C) at a dose of 32 mg/kg as experiment 1; assay type: functional, Mus musculus
# L1210 [41] = experiment: In vivo activity against L1210 leukemia cells in mice at a dose of 12 mg/kg and expressed as percent weight change after 7 days as experiment 3; assay type: functional, Mus musculus
# L1210 [42] = experiment: In vivo activity against L1210 leukemia cells in mice at a dose of 16 mg/kg and expressed as percent weight change after 7 days as experiment 1.; assay type: functional, Mus musculus
# L1210 [43] = experiment: In vivo activity against L1210 leukemia cells in mice at a dose of 16 mg/kg and expressed as percent weight change after 7 days as experiment 2; assay type: functional, Mus musculus
# L1210 [44] = experiment: In vivo activity against L1210 leukemia cells in mice at a dose of 16 mg/kg and expressed as percent weight change after 7 days as experiment 3; assay type: functional, Mus musculus
# L1210 [45] = experiment: In vivo activity against L1210 leukemia cells in mice at a dose of 20 mg/kg and expressed as percent weight change after 7 days as experiment 2; assay type: functional, Mus musculus
# L1210 [46] = experiment: In vivo activity against L1210 leukemia cells in mice at a dose of 24 mg/kg and expressed as percent weight change after 7 days as experiment 2; assay type: functional, Mus musculus
# L1210 [47] = experiment: In vivo activity against L1210 leukemia cells in mice at a dose of 2 mg/kg and expressed as percent weight change after 7 days as experiment 1.; assay type: functional, Mus musculus
# L1210 [48] = experiment: In vivo activity against L1210 leukemia cells in mice at a dose of 32 mg/kg and expressed as percent weight change after 7 days as experiment 1.; assay type: functional, Mus musculus
# L1210 [49] = experiment: In vivo activity against L1210 leukemia cells in mice at a dose of 4 mg/kg and expressed as percent weight change after 7 days as experiment 1.; assay type: functional, Mus musculus
# L1210 [50] = experiment: In vivo activity against L1210 leukemia cells in mice at a dose of 4 mg/kg and expressed as percent weight change after 7 days as experiment 3; assay type: functional, Mus musculus
# L1210 [51] = experiment: In vivo activity against L1210 leukemia cells in mice at a dose of 8 mg/kg and expressed as percent weight change after 7 days as experiment 1.; assay type: functional, Mus musculus
# L1210 [52] = experiment: In vivo activity against L1210 leukemia cells in mice at a dose of 8 mg/kg and expressed as percent weight change after 7 days as experiment 3; assay type: functional, Mus musculus
smiles,measurement,setting,value
CN(Cc1cnc2nc(N)nc(N)c2n1)c1ccc(C(=O)NC(CCC(=O)Nc2cccc(C(=O)O)c2)C(=O)O)cc1 (stereo unspecified),IC50,L1210 [1],1.6 nM
same,IC50,[2],2.2 nM
same,IC50,Dihydrofolate reductase,35 nM
CN(Cc1cnc2nc(N)nc(N)c2n1)c1ccc(C(=O)NC(CCC(=O)Nc2cccc(B(O)O)c2)C(=O)O)cc1 (stereo unspecified),Survival range,L1210 [3],11 days
same,Survival median,L1210 [4],12 days
same,Survival median,L1210 [5],14 days
same,IC50,L1210 [1],0.7 nM
same,T/C,L1210 [6],138%
same,Survival median,L1210 [7],11 days
same,Survival range,L1210 [8],12 days
same,Survival range,L1210 [9],9 days
same,T/C,L1210 [10],150%
same,T/C,L1210 [11],175%
same,weight change %,L1210 [12],4%
same,weight change %,L1210 [13],5%
same,weight change %,L1210 [14],8%
same,IC50,Dihydrofolate reductase,30 nM
Nc1nc(N)c2nc(CNc3ccc(C(=O)NC(CCCNC(=O)c4ccccc4C(=O)O)C(=O)O)cc3)cnc2n1 (stereo unspecified),Survival median,L1210 [15],15 days
same,Survival median,L1210 [16],14 days
same,Survival median,L1210 [17],17 days
same,Survival median,L1210 [18],22 days
same,Survival median,L1210 [19],18 days
same,Survival median,L1210 [20],18 days
same,Survival median,L1210 [21],24 days
same,Survival median,L1210 [22],>21 days
same,Survival median,L1210 [23],13 days
same,Survival median,L1210 [24],11 days
same,T/C,L1210 [25],175%
same,T/C,L1210 [26],213%
same,T/C,L1210 [27],250%
same,weight change %,L1210 [28],1%
same,Survival median,L1210 [29],15 days
same,Survival median,L1210 [30],20 days
same,Survival range,L1210 [31],13 days
same,T/C,L1210 [32],188%
same,T/C,L1210 [33],275%
same,T/C,L1210 [34],188% and 225%
same,T/C,L1210 [35],225%
same,T/C,L1210 [36],300%
same,T/C,L1210 [37],163%
same,T/C,L1210 [38],>263%
same,T/C,L1210 [39],250%
same,T/C,L1210 [40],138%
same,weight change %,L1210 [41],2%
same,weight change %,L1210 [42],-5%
same,weight change %,L1210 [43],1%
same,body weight change %,L1210 [44],-3%
same,weight change %,L1210 [45],-2%
same,weight change %,L1210 [46],-3%
same,weight change %,L1210 [47],-4%
same,weight change %,L1210 [48],-11%
same,weight change %,L1210 [49],-3%
same,weight change %,L1210 [50],8%
same,weight change %,L1210 [51],4%
same,weight change %,L1210 [52],4%
same,IC50,[2],48 nM
